The target in data set [1] is T1, Notum (Homo sapiens, UniProt Q6P988, C330S).
T1 sequence (Q6P988 81-451 C330S): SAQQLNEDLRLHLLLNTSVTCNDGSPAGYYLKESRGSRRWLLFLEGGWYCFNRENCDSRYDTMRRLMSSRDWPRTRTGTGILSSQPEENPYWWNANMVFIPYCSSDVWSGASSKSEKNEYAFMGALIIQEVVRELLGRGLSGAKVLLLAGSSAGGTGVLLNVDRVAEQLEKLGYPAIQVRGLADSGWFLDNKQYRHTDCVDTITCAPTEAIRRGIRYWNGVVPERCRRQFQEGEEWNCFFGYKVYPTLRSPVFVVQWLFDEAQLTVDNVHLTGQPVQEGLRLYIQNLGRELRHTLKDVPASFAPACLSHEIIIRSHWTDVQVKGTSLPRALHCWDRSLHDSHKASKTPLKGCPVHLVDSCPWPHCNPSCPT
Particulars: for fold improvement in Notum inhibition: versus parent: 7 vs 26, 16a vs 16, 15a vs 15, 7c vs 7b; for IC50: read-out: Notum IC50, Table S1, mean ± s.d. of N = 2-4 unless stated; for LE (ligand efficiency): LE = 1.4(−pIC50)/HAC; for LLE (lipophilic ligand efficiency): LLE = pIC50 – clogP; for LE / LLE: supplementary CSV.

Data set [2] deals with T1, Notum. Nature of the data set: biochemical.
The mark [3] stands for this setting: Notum IC50, OPTS substrate, 10-point curves 30 nM to 1 mM, mean ± s.d. of N = 2–4 unless stated, Table 1 and figures.
The mark [4] stands for this setting: IC50 (µM), supplementary CSV, Notum IC50 values for 1–58.
The mark [5] stands for this setting: pIC50, Table 1, Notum OPTS assay.

Each structure is given as a SMILES string. Where two headings read alike, the source gives them in different places.

Broadly, the IC50 is the concentration that inhibits the measured activity by half.

On to `OCc1cn(-c2ccc(Cl)c(C(F)(F)F)c2Cl)nn1` [7c], for which the “fold improvement in Notum inhibition” value at Notum [1] is listed as 7 fold.
In the case of `Cc1cccc2[nH]c(NC#N)nc12` [15a, N-(4-Methyl-1H-benzo[d]imidazol-2-yl)cyanamide], at Notum [1], the “fold improvement in Notum inhibition” value is given as 18 fold. Moreover, 0.94 ± 0.06 µM corresponded to half-maximal inhibition at Notum [2] (setting [3]) (IC50).
For `Cn1c(NC#N)nc2ccccc21` [15b], the half-inhibitory concentration (IC50) on Notum [1] was 5 ± 0.77 µM.
On to `N#CNc1nc2c(Cl)cccc2[nH]1` [15c], for which the IC50 at Notum [1] came out at 2.2 ± 0.31 µM.
In the case of `N#CNc1nc2c(Br)cccc2[nH]1` [15d], at Notum [1], the IC50 was determined as 2.3 ± 0.54 µM.
Regarding `N#CNc1nc2c(C(F)(F)F)cccc2[nH]1` [15e], the 50% inhibitory concentration (IC50) at Notum [1] was found to be 12 ± 1.4 µM.
In the case of `COc1cccc2[nH]c(NC#N)nc12` [15f], the half-inhibitory concentration (IC50) at Notum [1] was found to be 14 ± 1.3 µM.
On to `Cc1ccc2[nH]c(NC#N)nc2c1` [15g], for which, on Notum [1], the half-maximal inhibitory concentration (IC50) is 100 ± 4.4 µM.
On the same count and under the same terms, next, `N#CNc1nc2cc(Cl)ccc2[nH]1` [15h]: 29 ± 16 µM; `N#CNc1nc2cc(Br)ccc2[nH]1` [15i]: 15 ± 3.7 µM.
Take `N#CNc1nc2cc(C(F)(F)F)ccc2[nH]1` [15j]: on Notum [1], the 50% inhibitory concentration (IC50) was found to be 36 ± 5.7 µM.
In the case of `Cc1cccc2c1nc(NC#N)n2C` [15k], the IC50 on Notum [1] amounted to 9.3 ± 3.8 µM.
The same measure, in the same setting: under `Cc1cccc2nc(NC#N)n(C)c12` [15l] stands 2.2 ± 0.48 µM.
`Cc1ccc2[nH]c(NC#N)nc2c1C` [15m]: the half-inhibitory concentration (IC50) on Notum [1] turned out to be 18 ± 5.1 µM.
As to `FC(F)(F)c1cc(-c2cc[nH]n2)ccc1Cl` [16a], the “fold improvement in Notum inhibition” value on Notum [1] stood at 2.3 fold. At Notum [2] (setting [3]), this compound displayed a half-inhibitory concentration (IC50) of 1.4 ± 0.1 µM.
In turn, `FC(F)(F)c1cc(CNCc2ccc3c(c2)OCO3)ccc1Cl` [28a, 1-(Benzo[d][1,3]dioxol-5-yl)-N-(4-chloro-3-(trifluoromethyl)benzyl)methanamine] gave a half-maximal inhibitory concentration (IC50) against Notum [2] (setting [3]) of 16 ± 1.5 µM.
As to `CCNC(=O)Nc1cc(C)on1` [compound 1], the half-inhibitory concentration (IC50) against Notum [2] (setting [4]) and against Notum [2] (setting [3]) was greater than 1000 µM in each case.
`CC(=O)Nc1cccc2nonc12` [compound 2]: at Notum [1], the “LE (ligand efficiency)” value stood at 0.42, the “LLE (lipophilic ligand efficiency)” value worked out at 2.5, the LE is recorded as 0.42 and the LLE was 2.5. Besides, inhibition against Notum [2] (setting [3]) was half-maximal at 140 ± 31 µM (IC50).
For the compound `OCc1ccc(-n2cnc3ccccc32)cc1` [compound 4, [4-(1H-1,3-Benzimidazol-1-yl-)phenyl]methanol], on Notum [1], the “LE (ligand efficiency)” value worked out at 0.35, the “LLE (lipophilic ligand efficiency)” value was found to be 1.7, the LE is 0.35 and the LLE worked out at 1.7. The midpoint of inhibition against Notum [2] (setting [3]), the IC50, lay at 54 ± 16 µM.
In the case of `c1cnc(Oc2ccc(-c3cc[nH]n3)cc2)nc1` [compound 5, 2-[4-(1H-Pyrazol-3-yl)phenoxy]pyrimidine], at Notum [1], the “LE (ligand efficiency)” value was found to be 0.25, the “LLE (lipophilic ligand efficiency)” value is reported as 1.3, the LE is reported as 0.25 and the LLE was 1.3. This compound also showed an IC50 against Notum [2] (setting [3]) of 480 ± 82 µM.
Regarding `COC(=O)c1ccccc1Oc1ccc(N)cc1` [compound 6, Methyl 2-(4-aminophenoxy)benzoate], at Notum [1], the “LE (ligand efficiency)” value was 0.28, the “LLE (lipophilic ligand efficiency)” value is 0.9, the LE was 0.28 and the LLE worked out at 0.9. The same compound yielded a half-maximal inhibitory concentration (IC50) at Notum [2] (setting [3]) of 260 ± 120 µM.
As to `O=C(NCCc1ccncc1)NC1CCCCC1` [compound 9], the IC50 at Notum [2] (setting [4]) and against Notum [2] (setting [3]) was greater than 1000 µM in each case.
Take `Cc1nc2ccccn2c1C(=O)NCC(C)C` [compound 10]: on Notum [1], the “LE (ligand efficiency)” value is 0.26, the “LLE (lipophilic ligand efficiency)” value is on record as 0.6, the LE stood at 0.26 and the LLE is 0.6. Also, on Notum [2] (setting [3]), the IC50 turned out to be 700 ± 100 µM.
As for `Nc1ccc(S(=O)(=O)Nc2ccccn2)cc1` [compound 11, 4-Amino-N-(2-pyridin-2-yl)benzenesulfonamide], the IC50 against Notum [2] (setting [4]) and on Notum [2] (setting [3]) was greater than 1000 µM in each case.
Take `N#Cc1ccc(Cn2cnc3ccccc32)cc1` [compound 12, 4-(Benzimidazol-1-ylmethyl)benzonitrile]: on Notum [1], the “LE (ligand efficiency)” value is reported as 0.25, the “LLE (lipophilic ligand efficiency)” value was 0.7, the LE was 0.25 and the LLE worked out at 0.7. On Notum [2] (setting [3]), this compound showed an IC50 of 570 ± 20 µM.
For the compound `Nc1ccccc1OCc1ccccc1` [compound 13, 2-(Benzyloxy)aniline], on Notum [1], the “LE (ligand efficiency)” value is on record as 0.33, the “LLE (lipophilic ligand efficiency)” value was 0.6, the LE is given as 0.33 and the LLE was found to be 0.6. This compound also yielded a half-maximal inhibitory concentration (IC50) on Notum [2] (setting [3]) of 280 ± 110 µM.
Take `O=C(O)Cc1ccc(-c2ccccc2)cc1` [compound 14, 2-[(1,1’-Biphenyl)-4-yl]acetic acid]: on Notum [1], the “LE (ligand efficiency)” value stood at 0.33, the “LLE (lipophilic ligand efficiency)” value was found to be 0.9, the LE was 0.33 and the LLE is 0.9. For the same compound, the midpoint of inhibition against Notum [2] (setting [3]), the IC50, lay at 58 ± 8.2 µM.
As for `N#CNc1nc2ccccc2[nH]1` [compound 15], on Notum [1], the “LE (ligand efficiency)” value was determined as 0.56, the “LLE (lipophilic ligand efficiency)” value is 3.5 and the LLE is given as 3.5. In addition, at Notum [2] (setting [3]), the concentration for half-maximal inhibition (IC50) worked out at 17 ± 0.9 µM.
Regarding `Oc1c(F)cc(F)cc1-c1cc[nH]n1` [compound 16], at Notum [1], the “LE (ligand efficiency)” value amounted to 0.55, the “LLE (lipophilic ligand efficiency)” value is reported as 3.6, the LE is given as 0.55 and the LLE stood at 3.6. The half-inhibitory concentration (IC50) on Notum [2] (setting [3]) amounted to 3.3 ± 0.4 µM. Further, it took 3.16 µM to reach half-maximal inhibition on Notum [2] (setting [5]) (IC50).
`COc1ccc(-c2cc[nH]n2)c(O)c1` [compound 17]: at Notum [1], the “LE (ligand efficiency)” value amounted to 0.51, the “LLE (lipophilic ligand efficiency)” value was 2.9, the LE was 0.51 and the LLE worked out at 2.9. For the same compound, on Notum [2] (setting [3]), the half-maximal inhibitory concentration (IC50) is 34 ± 5.7 µM. The compound further had an IC50 on Notum [2] (setting [5]) of 31.6 µM.
Turning to `Nc1ccc(NCc2cccnc2)c(C(=O)O)c1` [compound 18], at Notum [1], the “LE (ligand efficiency)” value stood at 0.32, the “LLE (lipophilic ligand efficiency)” value amounted to 3.0, the LE was 0.32 and the LLE amounted to 3. The compound also showed an IC50 on Notum [2] (setting [3]) of 63 ± 12 µM.
Turning to `C[C@H]1CCCCN1C(=O)N1CCOCC1` [compound 19], at Notum [1], the “LE (ligand efficiency)” value stood at 0.29, the “LLE (lipophilic ligand efficiency)” value is 1.2, the LE was found to be 0.29 and the LLE worked out at 1.2. The compound further came in with an IC50 against Notum [2] (setting [3]) of 750 ± 17 µM.
With `Nc1nonc1N1CCCCC1` [compound 20], on Notum [1], the “LE (ligand efficiency)” value is on record as 0.46, the “LLE (lipophilic ligand efficiency)” value is reported as 2.7, the LE stood at 0.46 and the LLE is recorded as 2.7. This compound showed an IC50 against Notum [2] (setting [3]) of 110 ± 21 µM. On Notum [2] (setting [5]), this compound gave an IC50 of 126 µM.
For `Cc1ccc(CN(C)Cc2ccccc2)o1` [compound 21], at Notum [1], the “LE (ligand efficiency)” value amounted to 0.26, the “LLE (lipophilic ligand efficiency)” value is on record as -0.4, the LE is on record as 0.26 and the LLE is -0.4. The half-maximal inhibitory concentration (IC50) on Notum [2] (setting [3]) was determined as 930 ± 69 µM.
Consider `CCOc1cccc(-c2nnc(N)s2)c1` [compound 22], for which, at Notum [1], the “LE (ligand efficiency)” value is 0.38, the “LLE (lipophilic ligand efficiency)” value is 1.8, the LE is given as 0.38 and the LLE was determined as 1.8. At Notum [2] (setting [3]), this compound returned a half-maximal inhibitory concentration (IC50) of 93 ± 7 µM. Also, inhibition against Notum [2] (setting [5]) was half-maximal at 100 µM (IC50).
`N#CCN1CCN(c2cccc(Cl)c2)CC1` [compound 23]: at Notum [1], the “LE (ligand efficiency)” value was determined as 0.28, the “LLE (lipophilic ligand efficiency)” value is listed as 0.7 and the LLE stood at 0.7. At Notum [2] (setting [3]), the IC50 is 600 ± 59 µM.
Take `NCc1cc(-c2ccccc2)no1` [compound 24]: on Notum [1], the “LE (ligand efficiency)” value was 0.53, the “LLE (lipophilic ligand efficiency)” value was found to be 3.7, the LE was 0.53 and the LLE came out at 3.7. This compound also displayed a half-maximal inhibitory concentration (IC50) on Notum [2] (setting [3]) of 12 ± 3.2 µM.
Turning to `CC(=O)Nc1ccc(Nc2ccccc2)cc1` [compound 25, N-(4-Anilinophenyl)acetamide], at Notum [1], the “LE (ligand efficiency)” value came to 0.36, the “LLE (lipophilic ligand efficiency)” value worked out at 1.6, the LE is listed as 0.36 and the LLE turned out to be 1.6. This compound also gave an IC50 against Notum [2] (setting [3]) of 86 ± 21 µM.
With `CC(=O)Nc1ccc(OCC(=O)O)cc1` [compound 27, (4-Acetamidophenoxy)acetic acid], the IC50 on Notum [2] (setting [4]) and against Notum [2] (setting [3]) was greater than 1000 µM each time.
For the compound `O=C(NO)OCc1ccccc1` [compound 29, Benzyl N-hydroxycarbamate], the “response in fluorescence in Notum OPTS assay” value on Notum [1] (at higher concentrations (>100 μM), likely assay interference) was “variable, supramaxial responses in fluoresence”.
Take `O=S1(=O)CCN(Cc2ccco2)CC1` [compound 30]: the half-maximal inhibitory concentration (IC50) against Notum [2] (setting [4]) and against Notum [2] (setting [3]) was greater than 1000 µM throughout.
In the case of `O=C(O)COc1ccc(N2C(=O)CCC2=O)cc1` [compound 39], the IC50 against Notum [2] (setting [4]) and at Notum [2] (setting [3]) was greater than 1000 µM each time.
For `CCC(=O)Nc1ccc(C)cc1O` [compound 42], the IC50 against Notum [2] (setting [4]) and on Notum [2] (setting [3]) was greater than 1000 µM throughout.
`CCOc1ccc(CC(=O)O)cc1` [compound 48]: the half-inhibitory concentration (IC50) on Notum [2] (setting [4]) and against Notum [2] (setting [3]) was greater than 1000 µM in each case.
In the case of `O=C(O)COCc1ccccc1` [compound 52], the concentration for half-maximal inhibition (IC50) against Notum [2] (IC50 (µM)) and at Notum [2] (setting [3]) was greater than 1000 µM each time.
For `O=C1CN(C(=O)COc2ccccc2)CCN1` [compound 56], the IC50 against Notum [2] (setting [4]) and at Notum [2] (setting [3]) was greater than 100 µM each time.
